What all share (type): biochemical, Arthrobacter sp. KNK04-25
Test [1] deals with TAT. As to the kind of experiment: Specificity 2 to amino group donor: typical substrates of ω-amino acid transaminase. As to conditions: amino group donor 14 mM, 2-ketoglutaric acid 14 mM; for activity of the polypeptide for amino group donor (in words): pH 7.0; for Relative activity: pH 7.0, 30° C., 60 minutes, (S)-1-phenethylamine = 100. As for the experimental part:
(§1) Each reagent was added to the enzyme solution (100 μL each) so that the final concentrations were as specified in the following composition of the substrate solution. The volume of each reaction solution was adjusted to 400 μl with 0.1 M potassium phosphate buffer (pH 7.0). After 60 minutes of reaction at 30° C., 20 μL of 3N hydrochloric acid was added to stop the reaction. Next, 80 μL of a 0.2 M aqueous sodium carbonate solution and 200 μL of an acetone solution of 3.3 mg/mL Dabsyl chloride were each added to 20 μL of the thus obtained reaction solution, followed by 10 minutes of reaction at 70° C. Acetic acid (20 μL) was added to 50 μL of the reaction solution and then the solution was stirred. The resultant was analyzed by high performance liquid chromatography under the following conditions and thus the quantity of dabsylated glutamic acid was determined. In addition, the activity of an enzyme used in this assay was adjusted so that the amount of glutamic acid generated was 2.8 mM or less.
(§2) [Composition of Substrate Solution]
[High Performance Liquid Chromatography Analysis Conditions] • Column: YMC-Pack Pro C18 RS (YMC) • Eluent: acetonitrile/45 mM acetate buffer (pH 4.1)=35/65 (volume ratio) • Flow rate: 0.9 mL/minute • Detection: 254 nm • Column temperature: 30° C.

The subject of test [2] is TAT. As to the kind of experiment: Specificity to amino group donor (dabsylated glutamic acid, HPLC). The settings on record: amino group donor 14 mM, 2-ketoglutaric acid 14 mM; for activity of TAT for amino group donor (in words): pH 7.0; for Relative activity: pH 7.0, 30° C., 60 minutes, benzylamine = 100. On the procedure:
The substrate specificity of TAT to amino group donors was examined using the cell-free extracts obtained in Example 5.
as §1, with “solution (100 μL, each) so” for “solution (100 μL each) so”, “C., 20 μL, of 3N” for “C., 20 μL of 3N”, “Next, 80 μL, of a” for “Next, 80 μL of a”, “and 200 μL, of an” for “and 200 μL of an”, “to 20 μL, of the” for “to 20 μL of the”, “to 50 μL, of the” for “to 50 μL of the”
as §2
[High Performance Liquid Chromatography Analysis Conditions] • Column: Cosmosil 5C8-MS (NACALAI TESQUE, INC.) • Eluent: distilled water 2000 mL/acetonitrile 500 mL/methanol 500 ml/KH2PO4 6.1 g/H3PO4 2.5 g • Flow rate: 1 mL/minute • Detection: 254 nm • Column temperature: 30° C.

Test [3] deals with TAT.
Test [4] deals with TAT. As to the kind of experiment: Specificity 3 to amino group donor with 1-benzyl-3-pyrrolidinone as receptor. The settings on record: amino group donor 290 mM, 1-benzyl-3-pyrrolidinone 29 mM; for Relative activity: pH 7.0, 30° C., 90 minutes, L-alanine = 100. On the procedure: With the use of the cell-free extracts obtained in Example 5, the substrate specificity of TAT to an amino group donor was examined. Each reagent was added to enzyme solutions (200 μL each) so that the final concentrations were as specified in the following composition of the substrate solution. The volume of each reaction solution was adjusted to 400 μl with 0.1 M potassium phosphate buffer (pH 7.0). After 90 minutes of reaction at 30° C., 15 μL of 6N hydrochloric acid was added to stop the reaction. The thus obtained reaction solutions were analyzed by high performance liquid chromatography under the following conditions.
as §2
[High Performance Liquid Chromatography Quantitative Analysis Conditions] <Quantitative Analysis> • Column: Finepak SIL C18-T (JASCO Corporation) • Eluent: distilled water 945 mL/acetonitrile 555 mL/KH2PO4 7.5 g/SDS 2.16 g (adjusted with H3PO4 to pH 3.6) • Flow rate: 1 mL/minute • Detection: 254 nm • Column temperature: 40° C. <Analysis of Optical Purity>
Each reaction solution was treated with an appropriate amount of sodium carbonate so that it became basic, derivatized with dinitrobenzoyl chloride, and then analyzed under the following conditions. • Column: Chiralcel IA (Daicel Corporation) • Eluent: hexane/ethanol/diethylamine/acetonitrile=800/200/1/5 (volume ratio) • Flow rate: 0.8 mL/minute • Detection: 254 nm • Column temperature: 30° C.

Where [5] appears, read: amino group receptor 14 mM, (S)-1-phenethylamine 14 mM, pH 7.0, 30° C., 60 minutes, 2-ketoglutaric acid = 100.

Read-outs that look alike come from different tables or passages of the source.

Turning to `Cl.NCCC(N)C(=O)O` (racemic) [±2,4-diaminobutyric acid·HCl], in the test with TAT [1], the “activity of the polypeptide for amino group donor (in words)” value was “did not exhibit activity” and the Relative activity is on record as 0%. `CCC(C)N` (racemic) [±2-butylamine]: in the test on TAT [2], the “activity of TAT for amino group donor (in words)” value was “exhibited activity” and the Relative activity turned out to be 7%. For the compound `O=C1CCN(Cc2ccccc2)C1` [1-benzyl-3-pyrrolidinone], the Relative activity with TAT [3] ([…], 2-ketoglutaric acid = 100) amounted to 20%. The same measure, in the same setting: to `O=C1CCCc2ccccc21` [1-tetralone] belongs 1%; to `CC(=O)c1ccccn1` [2-acetylpyridine], 60%. For `CCC(C)=O` [2-butanone], the Relative activity with TAT [3] ([…], 2-ketoglutaric acid = 100) is on record as 0%.

In the case of `CCCCCC(C)=O` [2-heptanone], the Relative activity in the test on TAT [3] ([…], 2-ketoglutaric acid = 100) is on record as 3%. As to `CCCCC(C)=O` [2-hexanone], in the test on TAT [3] ([…], 2-ketoglutaric acid = 100), the Relative activity is listed as 4%. As to `CCCC(=O)C(=O)O` [2-keto-n-valeric acid], in the test on TAT [3] (setting [5]), the Relative activity turned out to be 3%. Take `CCC(=O)C(=O)O` [2-ketobutyric acid]: the Relative activity in the test on TAT [3] ([…], 2-ketoglutaric acid = 100) is 5%.

`O=C(O)CCC(=O)C(=O)O` [2-ketoglutaric acid]: the “activity of the polypeptide for amino group receptor (in words)” value in the test with TAT [3] (amino group receptor 14 mM, (S)-1-phenethylamine 14 mM) is “high activity”. The Relative activity in the test with TAT [3] (setting [5]) is 100%. As to `CCCC(C)=O` [2-pentanone], in the test with TAT [3] ([…], 2-ketoglutaric acid = 100), the Relative activity is recorded as 1%.

As to `O=C1CCc2ccccc2C1` [2-tetralone], in the test with TAT [3] ([…], 2-ketoglutaric acid = 100), the Relative activity amounted to 1%. Still for that read-out and setting: to `CCCCC(=O)CC` [3-heptanone] belongs 5%; to `CCC(=O)CC#N` [3-oxopentanenitrile], 0%; to `CCC(=O)CC` [3-pentanone], 1%. Turning to `NCCCC(=O)O` [4-aminobutyric acid], in the test with TAT [1], the “activity of the polypeptide for amino group donor (in words)” value is listed as “did not exhibit activity” and the Relative activity was 0%. `CC(=O)CCO` [4-hydroxy butane-2-one]: the Relative activity with TAT [3] ([…], 2-ketoglutaric acid = 100) came out at 0%. Take `NCCCCC(=O)O` [5-aminovaleric acid]: in the test with TAT [1], the “activity of the polypeptide for amino group donor (in words)” value is “did not exhibit activity” and the Relative activity was 0%.

Turning to `NCCCCCC(=O)O` [6-aminocaproic acid], in the test on TAT [1], the “activity of the polypeptide for amino group donor (in words)” value is “did not exhibit activity” and the Relative activity was 0%. Take `COc1ccc2c(c1)CC(=O)CC2` [7-methoxy-2-tetralone]: in the test with TAT [3] ([…], 2-ketoglutaric acid = 100), the Relative activity is listed as 0%. Regarding `C[C@H](N)c1ccccc1` [(S)-α-phenethylamine], the Relative activity with TAT [1] stood at 100%. `CC(C)=O` [Acetone]: in the test with TAT [3] ([…], 2-ketoglutaric acid = 100), the Relative activity is 0%. Still for that read-out and setting: to `O=Cc1ccccc1` [Benzaldehyde] belongs 70%. `O=C(Cc1ccccc1)c1ccccc1` [Benzyl phenyl ketone]: the Relative activity in the test on TAT [3] (setting [5]) is given as 0%. Consider `NCc1ccccc1` [Benzylamine], for which, in the test with TAT [2], the “activity of TAT for amino group donor (in words)” value is recorded as “exhibited activity” and the Relative activity is recorded as 100%.

Take `CCCC=O` [Butylaldehyde]: in the test with TAT [3] (setting [5]), the Relative activity is 6%. `CCOC(=O)CC(C)=O` [Ethyl acetoacetate]: the Relative activity in the test on TAT [3] ([…], 2-ketoglutaric acid = 100) is 2%.

Take `O=CC(=O)O` [Glyoxalic acid]: the “activity of the polypeptide for amino group receptor (in words)” value with TAT [3] was “exhibited activity”. The Relative activity with TAT [3] ([…], 2-ketoglutaric acid = 100) is given as 40%. As to `C[C@H](N)C(=O)O` [L-alanine], in the test on TAT [4], the Relative activity came out at 100%. For `N[C@@H](CCC(=O)O)C(=O)O` [L-glutamic acid], in the test on TAT [4], the “activity of TAT for amino group donor compared with L-alanine (in words)” value was “higher activity” and the Relative activity is 1650%. As to `Cl.NCCCC[C@H](N)C(=O)O` [L-lysine·HCl], in the test with TAT [1], the “activity of the polypeptide for amino group donor (in words)” value was “did not exhibit activity” and the Relative activity is listed as 0%.

In the case of `CCCC(=O)CC(=O)OC` [Methyl 3-oxohexanoate], the Relative activity with TAT [3] ([…], 2-ketoglutaric acid = 100) came out at 4%. Same read-out and setting: for `CCC(=O)CC(=O)OC` [Methyl 3-oxovalerate] the value was 4%; for `O=C(O)CC(=O)C(=O)O` [Oxalacetic acid], 4%; for `O=C(O)C(=O)Cc1ccccc1` [Phenylpyruvic acid], 8%. Take `NCCCCN` [Putrescine·2HCl]: in the test with TAT [1], the “activity of the polypeptide for amino group donor (in words)” value is reported as “did not exhibit activity” and the Relative activity stood at 0%. In the case of `CC(=O)C(=O)O` [Pyruvic acid], in the test with TAT [3], the “activity of the polypeptide for amino group receptor (in words)” value is listed as “exhibited activity”. Further, in the test with TAT [3] ([…], 2-ketoglutaric acid = 100), the Relative activity came out at 10%. `O=C1CN2CCC1CC2` [Quinuclidinone]: the Relative activity with TAT [3] (pH 7) turned out to be 0%. Take `CCCCN` [n-butylamine]: in the test with TAT [2], the “activity of TAT for amino group donor (in words)” value is “exhibited activity” and the Relative activity was 4%. For `N#CCC(=O)c1ccccc1` [α-cyanoacetophenone], the Relative activity with TAT [3] ([…], 2-ketoglutaric acid = 100) is given as 0%. As for `NCCC(=O)O` [β-alanine], in the test with TAT [1], the “activity of the polypeptide for amino group donor (in words)” value is listed as “did not exhibit activity” and the Relative activity came out at 0%.

The values are drawn from patent publication US9481871B2, “Nucleic acid encoding a polpeptide having aminotransferase activity, vectors and host cells comprising the nucleic acid” (KANEKA CORPORATION, priority 2010, dated 2016).
